# Experimental data taken from PMC4965013, “Open Source Drug Discovery with the Malaria Box Compound Collection for Neglected Diseases and Beyond” (PLoS Pathogens, 2016).
# Columns and labels:
# [1] = tested on: P. falciparum 3D7 trophozoites; test: Metabolomic fingerprint profiling LC-MS; type: cell-based, Plasmodium falciparum; parameters: UDP-D-glucose / ADP-D-glucose: unit not given here; conditions: for Acetyllysine / N-acetyl-L-ornithine / N-carbamoyl-L-aspartate / NADPH / dAMP / dCMP / dTDP / dTMP / dTTP / dihydroorotate / orotate / DLH / DLS/SDL/SID / PD / PEE / PVNF / 3-phosphoglycerate / ADP-D-glucose / ATP / CDP / D-sedoheptulose-1/7-phosphate / FAD / GMP / NAD+ / NADP+ / Octoluse Bisphosphate / Pyroglutamic acid / UDP-D-glucose / UDP-D-glucuronate / UDP-N-acetyl-glucosamine / UDP / UMP / UTP / a-ketoglutarate / citrate/isocitrate / cytidine / dATP / dGMP/AMP / fumarate / glucose-1/6-phosphate / glycerate / guanine / guanosine / hypoxanthine / indole / inosine / nicotinate / ornithine / phosphoenolpyruvate / pyruvate / ribose-phosphate / sarcosine/alanine / sn-glycerol-3-phosphate / succinate/methylmalonic acid / uridine / xanthosine: S2 Table Metabolomics; for Acetyllysine: metabolite Acetyllysine; for N-acetyl-L-ornithine: metabolite N-acetyl-L-ornithine; for N-carbamoyl-L-aspartate: metabolite N-carbamoyl-L-aspartate; for NADPH: metabolite NADPH; for dAMP: metabolite dAMP; for dCMP: metabolite dCMP; for dTDP: metabolite dTDP; for dTMP: metabolite dTMP; for dTTP: metabolite dTTP; for dihydroorotate: metabolite dihydroorotate; for orotate: metabolite orotate; for DLH: peptide DLH; for DLS/SDL/SID: peptide DLS/SDL/SID; for PD: peptide PD; for PEE: peptide PEE; for PVNF: peptide PVNF; for 3-phosphoglycerate: metabolite 3-phosphoglycerate; for ADP-D-glucose: metabolite ADP-D-glucose; for ATP: metabolite ATP; for CDP: metabolite CDP; for CDP / D-sedoheptulose-1/7-phosphate / GMP / Octoluse Bisphosphate / UDP / UMP / UTP / citrate/isocitrate / dGMP/AMP / fumarate / glucose-1/6-phosphate / glycerate / guanine / guanosine / inosine / pyruvate / sarcosine/alanine / succinate/methylmalonic acid / uridine / xanthosine: change in metabolite level after compound treatment; for D-sedoheptulose-1/7-phosphate: metabolite D-sedoheptulose-1/7-phosphate; for FAD: metabolite FAD; for GMP: metabolite GMP; for NAD+: metabolite NAD+; for NADP+: metabolite NADP+; for Octoluse Bisphosphate: metabolite Octoluse Bisphosphate; for Pyroglutamic acid: metabolite Pyroglutamic acid; for UDP-D-glucose: metabolite UDP-D-glucose; for UDP-D-glucuronate: metabolite UDP-D-glucuronate; for UDP-N-acetyl-glucosamine: metabolite UDP-N-acetyl-glucosamine; for UDP: metabolite UDP; for UMP: metabolite UMP; for UTP: metabolite UTP; for a-ketoglutarate: metabolite a-ketoglutarate; for citrate/isocitrate: metabolite citrate/isocitrate; for cytidine: metabolite cytidine; for dATP: metabolite dATP; for dGMP/AMP: metabolite dGMP/AMP; for fumarate: metabolite fumarate; for glucose-1/6-phosphate: metabolite glucose-1/6-phosphate; for glycerate: metabolite glycerate; for guanine: metabolite guanine; for guanosine: metabolite guanosine; for hypoxanthine: metabolite hypoxanthine; for indole: metabolite indole; for inosine: metabolite inosine; for 2_3-Diphosphoglyceric acid / 4-phosphopantothenate / 6-phospho-D-gluconate / FMN / IMP / Pyrophosphate / Sedoheptoluse bisphosphate / cyclic-AMP / glutathione disulfide / lactate / myo-inositol: metabolite level change after treatment; for nicotinate: metabolite nicotinate; for ornithine: metabolite ornithine; for phosphoenolpyruvate: metabolite phosphoenolpyruvate; for pyruvate: metabolite pyruvate; for ribose-phosphate: metabolite ribose-phosphate; for sarcosine/alanine: metabolite sarcosine/alanine; for sn-glycerol-3-phosphate: metabolite sn-glycerol-3-phosphate; for succinate/methylmalonic acid: metabolite succinate/methylmalonic acid; for uridine: metabolite uridine; for xanthosine: metabolite xanthosine
# P. falciparum = test: EC50 listed in S2 Table Metabolomics (used to set the concentration tested); type: cell-based; conditions: Plasmodium falciparum; EC50 used for Factor_XEC50 in metabolomics; read-out: EC50_nM
compound,measurement,setting,value
CCOC(=O)c1c(C)n(-c2ccc(Cl)cc2)c2ccc(OC(=O)C=Cc3ccccc3)cc12 [MMV666600],Acetyllysine,[1],0.2658
same,N-acetyl-L-ornithine,[1],0.3826
same,N-carbamoyl-L-aspartate,[1],0.5043
same,NADPH,[1],-0.1791
same,dAMP,[1],0.1797
same,dCMP,[1],0.7303
same,dTDP,[1],0.6846
same,dTMP,[1],0.3563
same,dTTP,[1],0.1062
same,dihydroorotate,[1],0.2265
same,orotate,[1],0.0746
same,DLH,[1],0.4837
same,DLS/SDL/SID,[1],0.1278
same,PD,[1],0.2139
same,PEE,[1],0.4962
same,PVNF,[1],0.206
same,3-phosphoglycerate,[1],0.1223
same,ADP-D-glucose,[1],0.3003
same,ATP,[1],0.3662
same,CDP,[1],0.7598
same,D-sedoheptulose-1/7-phosphate,[1],0.476
same,FAD,[1],0.1354
same,GMP,[1],-0.291
same,NAD+,[1],0.8191
same,NADP+,[1],0.2752
same,Octoluse Bisphosphate,[1],0.3013
same,Pyroglutamic acid,[1],0.03669
same,UDP-D-glucose,[1],0.1154
same,UDP-D-glucuronate,[1],0.1408
same,UDP-N-acetyl-glucosamine,[1],0.05839
same,UDP,[1],0.7125
same,UMP,[1],0.02013
same,UTP,[1],0.206
same,a-ketoglutarate,[1],-0.01449
same,citrate/isocitrate,[1],0.5294
same,cytidine,[1],-0.3168
same,dATP,[1],0.2753
same,dGMP/AMP,[1],0.4942
same,fumarate,[1],0.3444
same,glucose-1/6-phosphate,[1],0.5114
same,glycerate,[1],0.0963
same,guanine,[1],0.1348
same,guanosine,[1],-0.1252
same,hypoxanthine,[1],0.2037
same,indole,[1],-0.0001746
same,inosine,[1],0.0653
same,2_3-Diphosphoglyceric acid,[1],0.1463
same,4-phosphopantothenate,[1],0.3013
same,6-phospho-D-gluconate,[1],0.08781
same,FMN,[1],-0.2862
same,IMP,[1],0.3406
same,Pyrophosphate,[1],0.1816
same,Sedoheptoluse bisphosphate,[1],0.1719
same,cyclic-AMP,[1],0.1868
same,glutathione disulfide,[1],0.1725
same,lactate,[1],0.1409
same,myo-inositol,[1],-0.8322
same,nicotinate,[1],0.07374
same,ornithine,[1],0.01544
same,phosphoenolpyruvate,[1],0.01685
same,pyruvate,[1],-0.07405
same,ribose-phosphate,[1],0.1875
same,sarcosine/alanine,[1],-0.13
same,sn-glycerol-3-phosphate,[1],-0.02611
same,succinate/methylmalonic acid,[1],0.1082
same,uridine,[1],0.1838
same,xanthosine,[1],0.13
same,EC50,P. falciparum,216 nM
Cc1ccc(N2C3c4ccccc4N(S(=O)(=O)c4ccc(C)cc4)C2c2ccccc2N3S(=O)(=O)c2ccc(C)cc2)cc1 [MMV007160],Acetyllysine,[1],0.3548
same,N-acetyl-L-ornithine,[1],0.3325
same,N-carbamoyl-L-aspartate,[1],1.35
same,NADPH,[1],0.1135
same,dAMP,[1],0.01944
same,dCMP,[1],0.09265
same,dTDP,[1],0.2488
same,dTMP,[1],0.1305
same,dTTP,[1],0.2593
same,dihydroorotate,[1],1.082
same,orotate,[1],0.8469
same,DLH,[1],0.1334
same,DLS/SDL/SID,[1],0.2278
same,PD,[1],-0.1641
same,PEE,[1],-0.1118
same,PVNF,[1],0.2167
same,3-phosphoglycerate,[1],0.1652
same,ADP-D-glucose,[1],-0.01319
same,ATP,[1],0.3343
same,CDP,[1],0.1565
same,D-sedoheptulose-1/7-phosphate,[1],0.1973
same,FAD,[1],-0.002001
same,GMP,[1],0.2649
same,NAD+,[1],0
same,NADP+,[1],0.07922
same,Octoluse Bisphosphate,[1],0.295
same,Pyroglutamic acid,[1],0.3777
same,UDP-D-glucose,[1],0.05012
same,UDP-D-glucuronate,[1],0.1524
same,UDP-N-acetyl-glucosamine,[1],-0.001304
same,UDP,[1],0.1082
same,UMP,[1],0.008735
same,UTP,[1],0.1487
same,a-ketoglutarate,[1],0.5892
same,citrate/isocitrate,[1],0.4078
same,cytidine,[1],0.08232
same,dATP,[1],0.1879
same,dGMP/AMP,[1],0.0905
same,fumarate,[1],0.3202
same,glucose-1/6-phosphate,[1],0.8192
same,glycerate,[1],0.7953
same,guanine,[1],0.3293
same,guanosine,[1],0.8873
same,hypoxanthine,[1],0.7164
same,indole,[1],0.6321
same,inosine,[1],0.395
same,2_3-Diphosphoglyceric acid,[1],0.1996
same,4-phosphopantothenate,[1],0.1099
same,6-phospho-D-gluconate,[1],0.1949
same,FMN,[1],0.06109
same,IMP,[1],-0.03231
same,Pyrophosphate,[1],0.1406
same,Sedoheptoluse bisphosphate,[1],0.1591
same,cyclic-AMP,[1],0.1479
same,glutathione disulfide,[1],0.15
same,lactate,[1],0.5915
same,myo-inositol,[1],0.754
same,nicotinate,[1],0.5248
same,ornithine,[1],0.05899
same,phosphoenolpyruvate,[1],0.1975
same,pyruvate,[1],-0.02541
same,ribose-phosphate,[1],-0.3937
same,sarcosine/alanine,[1],0.2516
same,sn-glycerol-3-phosphate,[1],-0.6224
same,succinate/methylmalonic acid,[1],0.03261
same,uridine,[1],0.5939
same,xanthosine,[1],0.5985
same,EC50,P. falciparum,24.8 nM
CCOC(=O)c1cnc2ccc(CC)cc2c1O [MMV007116],Acetyllysine,[1],-0.1012
same,N-acetyl-L-ornithine,[1],0.0981
same,N-carbamoyl-L-aspartate,[1],2.971
same,NADPH,[1],-0.5029
same,dAMP,[1],-0.4219
same,dCMP,[1],0.4317
same,dTDP,[1],-1.171
same,dTMP,[1],-0.8513
same,dTTP,[1],-0.7029
same,dihydroorotate,[1],3.788
same,orotate,[1],-1.509
same,DLH,[1],0.2963
same,DLS/SDL/SID,[1],0.1623
same,PD,[1],0.3262
same,PEE,[1],0.1615
same,PVNF,[1],0.2601
same,3-phosphoglycerate,[1],-0.1794
same,ADP-D-glucose,[1],0.1742
same,ATP,[1],0.4661
same,CDP,[1],-0.7049
same,D-sedoheptulose-1/7-phosphate,[1],-0.06275
same,FAD,[1],0.2601
same,GMP,[1],-0.15
same,NAD+,[1],0.1229
same,NADP+,[1],0.2138
same,Octoluse Bisphosphate,[1],0.1604
same,Pyroglutamic acid,[1],0.5147
same,UDP-D-glucose,[1],0.04103
same,UDP-D-glucuronate,[1],0.1753
same,UDP-N-acetyl-glucosamine,[1],-0.1032
same,UDP,[1],-1.173
same,UMP,[1],-0.7684
same,UTP,[1],-0.9344
same,a-ketoglutarate,[1],-0.7057
same,citrate/isocitrate,[1],-0.7167
same,cytidine,[1],0.3209
same,dATP,[1],0.325
same,dGMP/AMP,[1],-0.3675
same,fumarate,[1],0.4728
same,glucose-1/6-phosphate,[1],0.07021
same,glycerate,[1],-0.09904
same,guanine,[1],-0.05466
same,guanosine,[1],-0.14
same,hypoxanthine,[1],-0.2065
same,indole,[1],-0.3037
same,inosine,[1],-0.2408
same,2_3-Diphosphoglyceric acid,[1],0.3408
same,4-phosphopantothenate,[1],-0.2638
same,6-phospho-D-gluconate,[1],0.07683
same,FMN,[1],-0.08712
same,IMP,[1],-0.2111
same,Pyrophosphate,[1],0.42
same,Sedoheptoluse bisphosphate,[1],0.05124
same,cyclic-AMP,[1],0.01532
same,glutathione disulfide,[1],0.02122
same,lactate,[1],-0.5604
same,myo-inositol,[1],-0.5893
same,nicotinate,[1],-0.6598
same,ornithine,[1],-0.07172
same,phosphoenolpyruvate,[1],-0.09558
same,pyruvate,[1],-0.6031
same,ribose-phosphate,[1],0.2426
same,sarcosine/alanine,[1],-0.04206
same,sn-glycerol-3-phosphate,[1],0.1096
same,succinate/methylmalonic acid,[1],0.07837
same,uridine,[1],-1.178
same,xanthosine,[1],0.04101
same,EC50,P. falciparum,351 nM
